Measured values: the Biogen ADME set (Fang et al. 2023)
Values after ≈ are worked out from the molar mass of the structure shown.

Conditions: for aqueous solubility: pH 6.8

| Compound | aqueous solubility [µg/mL] | MDR1-MDCK efflux ratio | intrinsic clearance, human liver microsomes [mL/min/kg] | intrinsic clearance, rat liver microsomes [mL/min/kg] | fraction unbound, human plasma | fraction unbound, rat plasma |
| --- | --- | --- | --- | --- | --- | --- |
| N[C@@H]1CCCN(c2c(/C=C3\SC(=O)NC3=O)cccc2-c2ccccc2)C1 | – | 28.9 | 9.01 | 25.9 | – | – |
| Cc1nc(N(C)C)nc(C)c1NC(=O)C1CCCCC1 | 49.3 (≈ 179 µM) | 0.656 | 6.25 | 75.4 | – | – |
| N=C1/C(=C\c2ccco2)C(=O)N=C2Sc3ccccc3N12 | 0.73 (≈ 2.47 µM) | – | – | – | – | – |
| CC(C)CCCNC(=O)c1[nH]ncc1Br | – | 0.579 | 16.5 | 742 | – | – |
| Cc1c(C(=O)NCC2CCSCC2)nnn1-c1cccc2cnccc12 | – | – | 177 | 1770 | – | – |
| C=CCn1cc(CNCc2csc3ccc(Cl)cc23)c(C)n1 | 21.4 (≈ 64.5 µM) | – | 347 | 3200 | – | – |
| C[C@H]1CN2C[C@H](O)C[C@@H]2CN1Cc1cccc2ccccc12 | – | 1.69 | 24.2 | 1910 | – | – |
| N#CC1(C(=O)N2CCN(Cc3ccccn3)CC2)CCCCC1 | 52.1 (≈ 167 µM) | 1.11 | 10.7 | 805 | – | – |
| CC(C)Cc1n[nH]c(-c2ccc(N3CCN(C)CC3)cc2)n1 | – | 3.36 | ≤ 4.74 | 236 | – | – |
| CC#CC(=O)N1CC[C@@H](n2cc(-c3ccc(Oc4c(F)cccc4F)cc3)c3c(N)n[nH]c(=O)c32)C1 | 2.7 (≈ 5.52 µM) | 50.2 | 41.7 | 519 | 0.00845 | 0.00935 |
| c1ccc(C2(CNc3nc4ccccc4o3)CCOCC2)cc1 | – | – | 129 | 3400 | – | – |
| CCc1nc(CNc2ccc(C#N)nc2)cs1 | – | 0.556 | ≤ 4.74 | 109 | – | – |
| Cc1cc(C)cc(OCCN(C)C(=O)NCCS(=O)(=O)N(C)C)c1 | – | 12.1 | 37.4 | 1090 | – | – |
| Cc1ccc(OCc2noc(-c3ccsc3)n2)cn1 | 52.7 (≈ 193 µM) | 0.524 | 56.1 | 204 | – | – |
| Nc1ccnn1Cc1ccc(Cl)c(F)c1 | 41.1 (≈ 182 µM) | – | ≤ 4.74 | 36.6 | – | – |
| c1cnc(NCCc2cccc3cccnc23)nc1 | 37 (≈ 148 µM) | – | 105 | 879 | – | – |
| Fc1ccc(F)c2c(NCc3ccc(N4CCOCC4)nc3)ccnc12 | 44.2 (≈ 124 µM) | 1.29 | 40.6 | 151 | – | – |
| CCCC(=O)NCC(=O)Nc1cnc(N2CCN(C)CC2)nc1 | 51.2 (≈ 160 µM) | 10.9 | ≤ 4.74 | ≤ 10.7 | – | – |
| O=c1[nH]c2ccccc2n1C1CCN(Cc2coc(-c3cccs3)n2)CC1 | – | – | 29.4 | 475 | – | – |
| Cc1cc(CNC(=O)N(C)Cc2c(C)nn(C)c2C)cnc1C | – | 94.1 | ≤ 4.74 | 112 | – | – |
| COc1ccc(OCC(=O)N2CCN(C)CC2)cc1 | 52.5 (≈ 199 µM) | 0.763 | ≤ 4.74 | 133 | – | – |
| CN1CCN(C(=O)c2cc(Br)cnc2Cl)c2cnccc21 | 57.8 (≈ 157 µM) | 4.54 | 9.09 | 90.8 | – | – |
| C[C@H]1CN(C2COC2)CCN1c1ccc(Nc2cc(-c3ccnc(N4CCn5c(cc6c5CC(C)(C)C6)C4=O)c3CO)cn(C)c2=O)nc1 | 46 (≈ 69.3 µM) | 23.1 | 14.8 | ≤ 10.7 | 0.162 | – |
| Cc1[nH]ncc1-c1nn2c(Cc3ccccc3Cl)nnc2s1 | 4.18 (≈ 12.6 µM) | – | – | – | – | – |
| Cc1cc(F)c(C(=O)Nc2cccc(-c3nncn3C(C)C)n2)cc1-n1cnc(C2CC2)c1 | 64.8 (≈ 145 µM) | – | – | – | – | – |
| Cc1cc(OCc2ccnc(Cl)c2)nnc1C | – | – | ≤ 4.74 | 51.6 | – | – |

Second part, the compound after the results:

| aqueous solubility [µg/mL] | MDR1-MDCK efflux ratio | intrinsic clearance, human liver microsomes [mL/min/kg] | intrinsic clearance, rat liver microsomes [mL/min/kg] | fraction unbound, human plasma | fraction unbound, rat plasma | Compound |
| --- | --- | --- | --- | --- | --- | --- |
| 1.65 (≈ 6.95 µM) | – | – | – | – | – | O=C(Nc1nc2ccccc2[nH]1)c1ccccc1 |
| 45 (≈ 109 µM) | 46.4 | 8.13 | 37.4 | 0.0183 | 0.0409 | O=C(Nc1cccc(-c2nncn2C2CC2)c1)c1cc(-n2cnc(C3CC3)c2)ccn1 |
| 50.2 (≈ 220 µM) | 0.743 | 8.73 | 28.1 | – | – | CCCC(=O)Nc1ccc(C)c2ncccc12 |
| 12.7 (≈ 35.7 µM) | – | 16.1 | 195 | – | – | CC(C)c1ccc(NC(=O)Cn2cnc3c2c(=O)n(C)c(=O)n3C)cc1 |
| – | 1.08 | 32.8 | 88.9 | – | – | COCC(=O)Nc1ccc(NC(=O)Cc2ccc(C(F)(F)F)cc2)cc1 |
| 39 (≈ 108 µM) | 26 | 13.7 | 81 | – | – | CCCCc1c(C)[nH]c2nc(N(Cc3cccs3)C(C)=O)nn2c1=O |
| 78 (≈ 185 µM) | 22.6 | 7.96 | 227 | – | – | CCN(CC)Cc1ccc2cc(COC(=O)Nc3ccc(C(=O)NO)cc3)ccc2c1 |
| – | 0.525 | 130 | 819 | – | – | CCOCCNC(=O)c1cccc(-c2cc(F)ccc2OC)c1 |
| 83.8 (≈ 199 µM) | 4.87 | 183 | 1360 | – | – | NC(=O)C1(Cc2ccc(-c3cccnc3)cc2)CCN(Cc2cccc(Cl)c2)CC1 |
| 28.3 (≈ 83.5 µM) | 0.725 | 32.6 | 625 | – | – | CCc1ccc(-c2nccn2CC(=O)Nc2ccc(C)cc2F)nc1 |
| 65.1 (≈ 161 µM) | 10.9 | 25 | 594 | – | – | COc1ccc(Nc2nc(N)nc(CN3CCN(Cc4ccccc4)CC3)n2)cc1 |
| 41.5 (≈ 110 µM) | – | ≤ 4.74 | 104 | – | – | CN1C(=O)[C@@H](NC(=O)c2nnc(Cc3ccccc3)[nH]2)COc2ccccc21 |
| – | – | 9.52 | 65.2 | – | – | CC(=O)Nc1ccc(C(=O)Nc2cc(-c3cccs3)ccc2N)cc1 |
| 21.4 (≈ 52.7 µM) | – | 77.5 | 425 | – | – | O=C(COc1ccc2ccc(=O)oc2c1)Nc1cccc(COCc2ccco2)c1 |
| 3.9 (≈ 9.47 µM) | 5.67 | 930 | 3260 | – | – | O=C(CCc1ccc(Cl)cc1)N1CCCC(c2n[nH]cc2-c2cccc(F)c2)C1 (configuration not stated) |
